Measured values published in US9732063B2, “Kinase inhibitors” (RESPIVERT LIMITED, priority 2012, dated 2017).
pIC50: −log10 of the molar value. Read-outs that look alike come from different tables or passages of the source.

What was measured:
p38 MAPKα = p38 MAPKα (Homo sapiens (Human), UniProt Q16539); test: p38 MAPKα enzyme inhibition (Z-LYTE FRET, Method 2); assay type: biochemical
c-Src = c-Src (Homo sapiens (Human), UniProt P12931); test: c-Src enzyme inhibition (Z-LYTE FRET); assay type: biochemical
Summary of the method: (§1)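 Kinase activity is measured on a dual-labelled synthetic peptide by FRET. ATP is supplied as an 800 μM solution for c-Src and a 60 μM solution for Syk. Compound is tested at four added concentrations, 4 to 0.004 μg/mL.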

Syk = Syk (Homo sapiens (Human), UniProt P43405); test: Syk enzyme inhibition (Z-LYTE FRET); assay type: biochemical
Summary of the method: as §1

d-U937 cells = test: LPS-induced TNFα/IL-8 release in d-U937 cells; assay type: cell-based; details: Homo sapiens
PBMCs [1] = test: LPS-induced TNFα/IL-8 release in PBMC cells; assay type: cell-based; details: Homo sapiens
Summary of the method: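 TNFα and IL-8 in supernatants were measured by sandwich ELISA after 24 h of 1 ng/mL LPS (E. coli O111:B4) at 37 °C, 5% CO2. Test compounds were added 2 h before LPS to PBMCs from healthy subjects, separated on a density gradient.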

PBMCs [2] = test: IL-2 and IFN gamma release in CD3/CD28 stimulated PBMC cells; assay type: cell-based; details: Homo sapiens
Summary of the method: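 They were cultured with compound for 3 days. IL-2 and IFN-γ in supernatants were quantified by sandwich ELISA, and IC50 was derived from the dose-response curve.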

HT29 cells = test: IL-1β-induced IL-8 release in HT29 cells; assay type: cell-based; details: Homo sapiens, HT-29, read-out: IC50 Values for Inhibition of Cytokine Release HT29 cells IL-8
Procedure: HT29 cells, a human colon adenocarcinoma cell line, are plated in a 96 well plate (24 hrs) and pre-treated with compounds at the desired concentration for 2 hours before addition of 5 ng/mL of IL-1β (Abcam) for 24 hours. Supernatants are harvested for IL-8 quantification by Sandwich ELISA (Duo-set, R&D System). The IC50 is determined from the dose response curve.

[3] = test system: intestinal mucosa biopsies from the inflamed regions of the colon; test: Human biopsy assay (intestinal mucosa biopsies of ulcerative colitis patients); assay type: cell-based; details: 24 hours; for cytokine (IL-1β, IL-6 and IL-8) release compared to the DMSO control: 1 μg/mL, biopsies from ulcerative colitis patients; for IL-1β release / IL-6 release / IL-8 release: 1 μg/ml, biopsies of UC patients, DMSO control = 100%
Procedure: Intestinal mucosa biopsies are obtained from the inflamed regions of the colon of IBD patients. […] DMSO control or test compounds at the desired concentration are added to the tissue and incubated for 24 hr in the organ culture chamber. The supernatant is harvested for determination of IL-6, IL-8, IL-1β and TNFα levels by R&D ELISA.

TNBS-induced colitis = details: for inflammatory cell infiltrate in the reticular and laminar propria zone / ulcer grade and epithelial repair compared to the vehicle control: dosed orally at either 1 or 5 mg/kg; for LP inflammation / Ulcer grade: oral gavage BID, conducted over 2 days, mice
Procedure: On Day 0 of the study TNBS (200 μL) is administered intra-colonically via a plastic catheter followed by BID dosing of the vehicle, reference or test compound for 2 or 4 days. During the study animals are weighed every day and stool observations are made and recorded as a score, based on stool consistency. At the time of sacrifice on Day 2 (or Day 4) the large intestine is removed and the length and weight recorded. Sections of the colon are taken for either MPO analysis to determine neutrophil infiltration or for histopathology involving scoring to determine disease severity.

GSK3α = GSK3α (Homo sapiens (Human), UniProt P49840); test: GSK 3α enzyme inhibition (Z-LYTE FRET, Method 2); assay type: biochemical
Summary of the method: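 Z-LYTE FRET: GSK3α preincubated with compound 2 h at RT, then FRET peptide and ATP added (stocks 8 μM and 40 μM) for 1 h, followed by 1 h protease development. Compound stocks 4–0.004 μg/mL; phosphorylation from coumarin/fluorescein emission ratio.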

[4] = dU937, read-out: IC50 Values for Inhibition of Cytokine Release dU937 cells IL-8
[5] = dU937, read-out: IC50 Values for Inhibition of Cytokine Release dU937 cells TNFα
[6] = read-out: IC50 Values for Inhibition of Cytokine Release PBMCs IL-8
[7] = read-out: IC50 Values for Inhibition of Cytokine Release PBMCs TNFα
[8] = read-out: IC50 Values for Inhibition of Cytokine Release PBMCs IFNγ
[9] = read-out: IC50 Values for Inhibition of Cytokine Release PBMCs IL-2

Sequence of c-Src (P12931 whole entry, looked up): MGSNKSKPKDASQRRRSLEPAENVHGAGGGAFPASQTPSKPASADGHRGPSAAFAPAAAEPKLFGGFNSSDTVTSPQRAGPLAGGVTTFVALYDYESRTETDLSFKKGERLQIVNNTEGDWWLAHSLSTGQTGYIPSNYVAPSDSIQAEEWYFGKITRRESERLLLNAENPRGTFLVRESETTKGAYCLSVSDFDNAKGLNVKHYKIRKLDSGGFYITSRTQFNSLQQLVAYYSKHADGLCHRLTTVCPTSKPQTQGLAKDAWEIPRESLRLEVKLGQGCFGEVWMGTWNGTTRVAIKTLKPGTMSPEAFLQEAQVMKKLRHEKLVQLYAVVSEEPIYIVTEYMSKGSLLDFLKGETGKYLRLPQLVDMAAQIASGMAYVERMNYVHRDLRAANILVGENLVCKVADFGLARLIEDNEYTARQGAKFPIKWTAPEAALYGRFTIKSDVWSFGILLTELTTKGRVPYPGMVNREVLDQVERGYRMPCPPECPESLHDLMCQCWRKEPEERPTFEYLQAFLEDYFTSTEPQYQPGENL
Sequence of p38 MAPKα (Q16539 whole entry): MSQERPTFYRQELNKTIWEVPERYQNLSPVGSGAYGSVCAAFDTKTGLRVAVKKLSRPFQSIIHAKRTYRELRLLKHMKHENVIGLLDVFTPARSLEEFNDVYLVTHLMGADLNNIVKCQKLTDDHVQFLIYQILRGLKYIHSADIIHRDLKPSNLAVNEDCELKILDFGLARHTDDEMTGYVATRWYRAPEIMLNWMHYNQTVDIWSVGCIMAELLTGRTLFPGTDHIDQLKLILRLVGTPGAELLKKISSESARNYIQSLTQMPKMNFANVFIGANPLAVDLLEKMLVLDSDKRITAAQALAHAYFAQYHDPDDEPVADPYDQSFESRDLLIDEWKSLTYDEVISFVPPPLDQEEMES
Sequence of GSK3α (P49840 whole entry): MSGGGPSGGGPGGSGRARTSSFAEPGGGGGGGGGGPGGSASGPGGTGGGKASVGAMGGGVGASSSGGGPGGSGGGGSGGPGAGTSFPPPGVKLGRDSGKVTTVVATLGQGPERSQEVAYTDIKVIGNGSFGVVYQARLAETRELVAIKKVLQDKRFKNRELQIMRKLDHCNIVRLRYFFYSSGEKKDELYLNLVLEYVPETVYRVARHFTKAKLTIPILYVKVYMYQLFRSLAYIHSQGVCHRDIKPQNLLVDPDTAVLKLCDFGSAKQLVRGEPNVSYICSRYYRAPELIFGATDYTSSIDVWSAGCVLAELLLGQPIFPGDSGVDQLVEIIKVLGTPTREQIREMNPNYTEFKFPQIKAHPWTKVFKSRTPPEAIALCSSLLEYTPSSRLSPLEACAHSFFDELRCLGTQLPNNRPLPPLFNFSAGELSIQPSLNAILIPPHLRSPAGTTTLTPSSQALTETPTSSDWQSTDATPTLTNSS

Row | SMILES | pIC50 (p38 MAPKα) | pIC50 (c-Src) | pIC50 (Syk) | pIC50 (d-U937 cells; [4]) | pIC50 (d-U937 cells; [5]) | pIC50 (PBMCs [1]; [6]) | pIC50 (PBMCs [1]; [7]) | pIC50 (PBMCs [2]; [8]) | pIC50 (PBMCs [2]; [9]) | pIC50 (HT29 cells) | cytokine (IL-1β, IL-6 and IL-8) release compared to the DMSO control [3] | IL-1β release [3] | IL-6 release [3] | IL-8 release [3] | inflammatory cell infiltrate in the reticular and laminar propria zone (TNBS-induced colitis) | ulcer grade and epithelial repair compared to the vehicle control (TNBS-induced colitis) | LP inflammation (TNBS-induced colitis; 1 mg/kg) | Ulcer grade (TNBS-induced colitis; 1 mg/kg) | LP inflammation (TNBS-induced colitis; 5 mg/kg) | Ulcer grade (TNBS-induced colitis; 5 mg/kg) | further results
1 | COCCOCCOCCOc1cc(Nc2nccc(Oc3ccc(NC(=O)Nc4cc(C(C)(C)C)nn4-c4ccc(OC)cc4)c4ccccc34)n2)cc(OC)c1 [Example 44, 1-(3-(tert-Butyl)-1-(4-methoxyphenyl)-1H-pyrazol-5-yl)-3-(4-((2-((3-methoxy-5-(2-(2-(2-methoxyethoxy)ethoxy)ethoxy)phenyl)amino)pyrimidin-4-yl)oxy)naphthalen-1-yl)urea] | 6.99 | 8.00 | 7.64 | 9.22 | 9.30 | 8.80 | 9.22 | 8.85 | 7.41 | 8.92 | significantly inhibited | 4 ± 5% | 25 ± 44% | 2 ± 2% | marked reduction | marked improvements | – | – | – | – | –
2 | COCCOCCOCCOCCOCCOCCOCCOc1cc(Nc2nccc(Oc3ccc(NC(=O)Nc4cc(C(C)(C)C)nn4-c4ccc(C)cc4)c4ccccc34)n2)cc(OC)c1 [Example 51, 1-(4-((2-((3-(2,5,8,11,14,17,20-Heptaoxadocosan-22-yloxy)-5-methoxyphenyl)amino)pyrimidin-4-yl)oxy)naphthalen-1-yl)-3-(3-(tert-butyl)-1-(p-tolyl)-1H-pyrazol-5-yl)urea] | 7.28 | 8.00 | 7.74 | 9.40 | 9.52 | 8.72 | – | 8.74 | 7.39 | 8.80 | significantly inhibited | 4 ± 2% | 12 ± 15% | 2 ± 1% | marked reduction | marked improvements | 3.1 ± 0.4 | 2.8 ± 0.5 | 2.3 ± 0.4 | 2.6 ± 0.5 | pIC50 (GSK3α): 5.88
3 | COCCOCCOCCOc1cc(Nc2cc(Oc3ccc(NC(=O)Nc4cc(C(C)(C)C)nn4-c4ccc(C)cc4)c4ccccc34)ccn2)cc(OC)c1 [Example 56, 1-(3-(tert-Butyl)-1-(p-tolyl)-1H-pyrazol-5-yl)-3-(4-((2-((3-methoxy-5-(2-(2-(2-methoxyethoxy)ethoxy)ethoxy)phenyl)amino)pyridin-4-yl)oxy)naphthalen-1-yl)urea] | 6.85 | 7.55 | 7.37 | 8.85 | 9.10 | 8.62 | 8.80 | 8.57 | 6.82 | 8.35 | significantly inhibited | 5 ± 1% | 19 ± 18% | 3 ± 3% | marked reduction | marked improvements | 2.1 ± 0.3 | 2.3 ± 0.4 | 2.4 ± 0.3 | 3.2 ± 0.4 | –
